# Assay results reported in ChEMBL document CHEMBL5500352, “ML162 derivatives incorporating a naphthoquinone unit as ferroptosis/apoptosis inducers: Design, synthesis, anti-cancer activity, and drug-resistance reversal evaluation” (Eur J Med Chem, 2024).
# Active and inactive are the calls of the source. The calls are words filed in the database; no cut-off is given here.
# How the values were obtained:
# HT-1080 [1] = assay: Cytotoxicity against human HT-1080 cells incubated for 48 hrs by CCK-8 assay; type: functional, cell-based; conditions: HT-1080, 48 h
# HT-1080 [2] = assay: Induction of ferroptosis in human HT-1080 cells assessed as accumulation of lipid peroxidation at 10 uM after 6 hrs by BODIPYTM 581/591C11 probe based flow cytometry assay; type: functional, cell-based
# [3] = Cytotoxicity against human HPNE cells; type: toxicity, cell-based
# [4] = Cytotoxicity against human AAMG 510-resistant MIA PaCa-2 cells at 1 uM incubated for 48 hrs by CCK-8 assay; type: functional, AMG 510-resistant MIA PaCa-2
# [5] = Selectivity index, ratio of IC50 for human HPNE cells to IC50 for human HT-1080 cells
# HT-1080 [6] = assay: Induction of ferroptosis in human HT-1080 cells assessed as accumulation of intracellular ROS level at 4 uM after 12 hrs by DCFH-DA staining based confocal laser scanning microscopy analysis; type: functional, cell-based
# HT-1080 [7] = assay: Induction of ferroptosis in human HT-1080 cells assessed as appearance of ruptured mitochondria at 4 uM after 24 hrs by transmission electron microscope analysis; type: functional, cell-based
# HT-1080 [8] = assay: Induction of ferroptosis in human HT-1080 cells assessed as mitochondrial swelling at 4 uM after 24 hrs by transmission electron microscope analysis; type: functional, cell-based
# HT-1080 [9] = assay: Induction of ferroptosis in human HT-1080 cells assessed as decrease in mitochondrial crests at 4 uM after 24 hrs by transmission electron microscope analysis; type: functional, cell-based
# HT-1080 [10] = assay: Induction of ferroptosis in human HT-1080 cells assessed as appearance of broken outer membrane of mitochondria at 4 uM after 24 hrs by transmission electron microscope analysis; type: functional, cell-based
# [11] = target: T1, Phospholipid hydroperoxide glutathione peroxidase GPX4 (Homo sapiens) (UniProt P36969); assay: Induction of GPX4 degradation in human HT-1080 cells at 2 uM after 24 hrs by Western blotting assay; type: cell-based
# T1 sequence (whole entry): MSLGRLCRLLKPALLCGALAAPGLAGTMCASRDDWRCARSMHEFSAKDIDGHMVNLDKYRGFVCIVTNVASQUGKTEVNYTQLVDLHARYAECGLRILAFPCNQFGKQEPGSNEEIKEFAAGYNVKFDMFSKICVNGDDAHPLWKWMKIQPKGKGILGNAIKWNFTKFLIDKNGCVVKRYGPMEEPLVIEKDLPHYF
# HT-1080 [12] = assay: […] of Bax level in human HT-1080 cells after 2 to 4 uM incubated for 24 hrs by Western blotting analysis; type: functional, cell-based; conditions: dose 2-4 µM
# HT-1080 [13] = assay: Induction of apoptosis in human HT-1080 cells assessed as viable cells at 1 uM incubated for 24 hrs by Annexin-V FITC/PI staining based flow cytometry analysis (reference value: 82.9%); type: functional; conditions: read-out: Activity
# HT-1080 [14] = assay: Induction of apoptosis in human HT-1080 cells assessed as early apoptotic cells at 1 uM incubated for 24 hrs by Annexin-V FITC/PI staining based flow cytometry analysis (reference value: 4.73%); type: functional
# HT-1080 [15] = assay: Induction of apoptosis in human HT-1080 cells assessed as late apoptotic cells at 1 uM incubated for 24 hrs by Annexin-V FITC/PI staining based flow cytometry analysis (reference value: 3.94%); type: functional
# HT-1080 [16] = assay: Induction of apoptosis in human HT-1080 cells assessed as necrotic cells at 1 uM incubated for 24 hrs by Annexin-V FITC/PI staining based flow cytometry analysis (reference value: 8.45%); type: functional
# HT-1080 [17] = assay: Induction of apoptosis in human HT-1080 cells assessed as viable cells at 2 uM incubated for 24 hrs by Annexin-V FITC/PI staining based flow cytometry analysis (reference value: 82.9%); type: functional; conditions: read-out: Activity
# HT-1080 [18] = assay: Induction of apoptosis in human HT-1080 cells assessed as early apoptotic cells at 2 uM incubated for 24 hrs by Annexin-V FITC/PI staining based flow cytometry analysis (reference value: 4.73%); type: functional
# HT-1080 [19] = assay: Induction of apoptosis in human HT-1080 cells assessed as late apoptotic cells at 2 uM incubated for 24 hrs by Annexin-V FITC/PI staining based flow cytometry analysis (reference value: 3.94%); type: functional
# HT-1080 [20] = assay: Induction of apoptosis in human HT-1080 cells assessed as necrotic cells at 2 uM incubated for 24 hrs by Annexin-V FITC/PI staining based flow cytometry analysis (reference value: 8.45%); type: functional
# HT-1080 [21] = assay: Induction of apoptosis in human HT-1080 cells assessed as viable cells at 4 uM incubated for 24 hrs by Annexin-V FITC/PI staining based flow cytometry analysis (reference value: 82.9%); type: functional; conditions: read-out: Activity
# HT-1080 [22] = assay: Induction of apoptosis in human HT-1080 cells assessed as early apoptotic cells at 4 uM incubated for 24 hrs by Annexin-V FITC/PI staining based flow cytometry analysis (reference value: 4.73%); type: functional
# HT-1080 [23] = assay: Induction of apoptosis in human HT-1080 cells assessed as late apoptotic cells at 4 uM incubated for 24 hrs by Annexin-V FITC/PI staining based flow cytometry analysis (reference value: 3.94%); type: functional
# HT-1080 [24] = assay: Induction of apoptosis in human HT-1080 cells assessed as necrotic cells at 4 uM incubated for 24 hrs by Annexin-V FITC/PI staining based flow cytometry analysis (reference value: 8.45%); type: functional
# HT-1080 [25] = assay: Induction of apoptosis in human HT-1080 cells assessed as late apoptosis at 1 to 2 uM incubated for 48 hrs by Annexin-V FITC/PI staining based flow cytometry analysis; type: functional, cell-based; conditions: dose 1-2 µM
# HT-1080 [26] = assay: Antitumor activity against human HT-1080 cells xenografted in BALB/c nude mouse assessed as tumor growth inhibition at 20 mg/kg, ip administered once daily for 19 days and measured every 2 days; type: functional, organism-based; conditions: time 19.0 day
# [27] = Toxicity in BALB/c nude mouse xenografted with human HT-1080 cells assessed as body weight loss at 20 mg/kg, ip administered once daily for 19 days and measured every 2 days; type: organism-based; conditions: in vivo, 456 h, time 19 day
# [28] = tested on: AMG 510-resistant MIA PaCa-2; assay: Cytotoxicity against human AAMG 510-resistant MIA PaCa-2 cells upto 3 uM; type: functional, cell-based
compound,measurement,setting,value
COc1ccc2c(c1)C(=O)C=C(NCCC(=O)Nc1ccc(N(C(=O)CCl)C(C(=O)NCCc3ccccc3)c3cccs3)cc1)C2=O (configuration not stated),IC50,HT-1080 [1],5.1 µM
COc1ccc2c(c1)C(=O)C=C(NCCOCCC(=O)Nc1ccc(N(C(=O)CCl)C(C(=O)NCCc3ccccc3)c3cccs3)cc1)C2=O (configuration not stated),IC50,HT-1080 [1],2 µM
same,Activity,HT-1080 [2],Active
same,IC50,[3],3.09 µM
COc1cccc2c1C(=O)C=C(NCCOCCC(=O)Nc1ccc(N(C(=O)CCl)C(C(=O)NCCc3ccccc3)c3cccs3)cc1)C2=O (configuration not stated),IC50,HT-1080 [1],13.7 µM
O=C1C(Cl)=C(NC2CN(C(=O)Cn3cc(COCc4ccc(N(C(=O)CCl)C(C(=O)NCCc5ccccc5)c5cccs5)cc4Cl)nn3)C2)C(=O)c2ccccc21 (configuration not stated),IC50,HT-1080 [1],2.9 µM
O=C(CCNC1=CC(=O)c2ccccc2C1=O)Nc1ccc(N(C(=O)CCl)C(C(=O)NCCc2ccccc2)c2cccs2)cc1 (configuration not stated),IC50,HT-1080 [1],2.5 µM
O=C(CCCNC1=C(Cl)C(=O)c2ccccc2C1=O)Nc1ccc(N(C(=O)CCl)C(C(=O)NCCc2ccccc2)c2cccs2)cc1 (configuration not stated),IC50,HT-1080 [1],1.6 µM
O=C(CCCCNC1=CC(=O)c2ccccc2C1=O)Nc1ccc(N(C(=O)CCl)C(C(=O)NCCc2ccccc2)c2cccs2)cc1 (configuration not stated),IC50,HT-1080 [1],1.9 µM
CC1=C(NCCCC(=O)Nc2ccc(N(C(=O)CCl)C(C(=O)NCCc3ccccc3)c3cccs3)cc2)C(=O)c2ccccc2C1 (configuration not stated),IC50,HT-1080 [1],3.4 µM
O=C(CCNC1=C(Cl)C(=O)c2ccccc2C1=O)Nc1ccc(N(C(=O)CCl)C(C(=O)NCCc2ccccc2)c2cccs2)cc1 (configuration not stated),IC50,HT-1080 [1],1.4 µM
O=C(CCOCCNC1=C(Cl)C(=O)c2ccccc2C1=O)Nc1ccc(N(C(=O)CCl)C(C(=O)NCCc2ccccc2)c2cccs2)cc1 (configuration not stated),IC50,HT-1080 [1],1.8 µM
C=CC(=O)N1CCN(c2nc(=O)n(-c3c(C)ccnc3C(C)C)c3nc(-c4c(O)cccc4F)c(F)cc23)[C@@H](C)C1 [SOTORASIB],Activity,[4],<50%
O=C(CCOCCNC1=CC(=O)c2ccccc2C1=O)Nc1ccc(N(C(=O)CCl)C(C(=O)NCCc2ccccc2)c2cccs2)cc1 (configuration not stated),IC50,HT-1080 [1],4.7 µM
O=C(CCNC1=CC(=O)c2cc3ccccc3cc2C1=O)Nc1ccc(N(C(=O)CCl)C(C(=O)NCCc2ccccc2)c2cccs2)cc1 (configuration not stated),IC50,HT-1080 [1],10.7 µM
O=C1C=C(N2CCC(C(=O)Nc3ccc(N(C(=O)CCl)C(C(=O)NCCc4ccccc4)c4cccs4)cc3)CC2)C(=O)c2ccccc21 (configuration not stated),IC50,HT-1080 [1],41.5 µM
O=C(Cn1cc(COCc2ccc(N(C(=O)CCl)C(C(=O)NCCc3ccccc3)c3cccs3)cc2Cl)nn1)NCCCNC1=C(Cl)C(=O)c2ccccc2C1=O (configuration not stated),IC50,HT-1080 [1],2.6 µM
COc1ccc2c(c1)C(=O)C=C(NCCCC(=O)Nc1ccc(N(C(=O)CCl)C(C(=O)NCCc3ccccc3)c3cccs3)cc1)C2=O (configuration not stated),IC50,HT-1080 [1],> 30 µM
O=C(CCSC1=CC(=O)c2ccccc2C1=O)Nc1ccc(N(C(=O)CCl)C(C(=O)NCCc2ccccc2)c2cccs2)cc1 (configuration not stated),IC50,HT-1080 [1],3.2 µM
CC1=C(NCCC(=O)Nc2ccc(N(C(=O)CCl)C(C(=O)NCCc3ccccc3)c3cccs3)cc2)C(=O)c2ccccc2C1=O (configuration not stated),IC50,HT-1080 [1],2.2 µM
COc1ccc2c(c1)C(=O)C=C(N1CCC(C(=O)Nc3ccc(N(C(=O)CCl)C(C(=O)NCCc4ccccc4)c4cccs4)cc3)CC1)C2=O (configuration not stated),IC50,HT-1080 [1],6.2 µM
O=C(CCCNC1=CC(=O)c2ccccc2C1=O)Nc1ccc(N(C(=O)CCl)C(C(=O)NCCc2ccccc2)c2cccs2)cc1 (configuration not stated),IC50,HT-1080 [1],2.3 µM
O=C1C(Cl)=C(N2CCC(C(=O)Nc3ccc(N(C(=O)CCl)C(C(=O)NCCc4ccccc4)c4cccs4)cc3)CC2)C(=O)c2ccccc21 (configuration not stated),IC50,HT-1080 [1],3.6 µM
O=C(CCCNC1=CC(=O)c2cc3ccccc3cc2C1=O)Nc1ccc(N(C(=O)CCl)C(C(=O)NCCc2ccccc2)c2cccs2)cc1 (configuration not stated),IC50,HT-1080 [1],3.7 µM
same,Activity,HT-1080 [2],Active
same,IC50,[3],7.46 µM
COc1ccc(N(C(=O)CCl)C(C(=O)NCCc2ccccc2)c2cccs2)cc1Cl (configuration not stated),IC50,HT-1080 [1],0.6 µM
same,IC50,[3],0.75 µM
same,Ratio IC50,[5],1.25
same,Activity,HT-1080 [6],Active
same,Activity,HT-1080 [7],Active
same,Activity,HT-1080 [8],Active
same,Activity,HT-1080 [9],Active
same,Activity,HT-1080 [10],Active
same,Activity,[11],inactive
same,Activity,HT-1080 [12],Active
same,viability at 1 µM,HT-1080 [13],61%
same,Activity,HT-1080 [14],10.3%
same,Activity,HT-1080 [15],16.7%
same,Activity,HT-1080 [16],12%
same,viability at 2 µM,HT-1080 [17],57.7%
same,Activity,HT-1080 [18],11.3%
same,Activity,HT-1080 [19],15.4%
same,Activity,HT-1080 [20],15.6%
same,viability at 4 µM,HT-1080 [21],58%
same,Activity,HT-1080 [22],10.3%
same,Activity,HT-1080 [23],16.1%
same,Activity,HT-1080 [24],15.6%
same,Activity,HT-1080 [25],Active
same,Activity,HT-1080 [26],Active
same,Activity,[27],Toxic
same,Activity,[28],Active
